# Results reported in patent publication US6465482B2, “Arylpiperazinyl-cyclohexyl indole derivatives for the treatment of depression” (Wyeth, priority 1999, dated 2002).
# Biological target: T1, human 5-HT1A receptor subtype (Homo sapiens, UniProt P08908)
# T1 construct: expressed in transfected cells
# T1 sequence (P08908 1-422): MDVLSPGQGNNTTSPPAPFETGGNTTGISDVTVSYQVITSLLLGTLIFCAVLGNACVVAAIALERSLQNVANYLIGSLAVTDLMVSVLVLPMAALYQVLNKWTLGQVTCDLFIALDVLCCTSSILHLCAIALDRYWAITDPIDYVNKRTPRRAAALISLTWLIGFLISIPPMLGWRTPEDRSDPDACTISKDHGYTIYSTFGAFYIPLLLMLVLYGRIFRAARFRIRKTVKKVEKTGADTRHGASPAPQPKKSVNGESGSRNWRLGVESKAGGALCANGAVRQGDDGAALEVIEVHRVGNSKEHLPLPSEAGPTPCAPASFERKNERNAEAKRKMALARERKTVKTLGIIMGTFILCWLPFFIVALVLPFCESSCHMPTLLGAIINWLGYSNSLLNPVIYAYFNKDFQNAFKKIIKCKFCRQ
# Test: 5-HT1A receptor binding, [3H]8-OH-DPAT, CHO cell membranes
# Conditions: [3H]8-OH-DPAT 1.5 nM
# Description: The PCR cloning of the human 5-HT1A receptor subtype from a human genomic library has been described previously Chanda et al., Mol. Pharmacol., 43:516 (1993). A stable Chinese hamster ovary cell line expressing the human 5-HT1A receptor subtype (5-HT1A.CH2O cells) was employed throughout this study. Cells were maintained in DMEM supplemented with 10% fetal calf serum, non-essential amino acids and penicillin/streptomycin.
# Cells were grown to 95-100% confluency as a monolayer before membranes were harvested for binding studies. Cells were gently scraped from the culture plates, transferred to centrifuge tubes, and washed twice by centrifugation (2000 rpm for 10 min., 4° C.) in buffer (50 mM Tris; pH 7.5). The resulting pellets were aliquoted and placed at −80° C. On the day of assay, the cells were thawed on ice, and resuspended in buffer. Studies were conducted using [^3H]8-OH-DPAT as the radioligand. The binding assay was performed in 96 well microtiter plates in a final total volume of 250 μL of buffer. Competition experiments were performed by using 7 concentrations of unlabelled drug and a final ligand concentration of 1.5 nM. Non-specific binding was determined in the presence of 10 μM 5HT. Saturation analysis was conducted by using [^3H]8-OH-DPAT at concentaritions ranging from 0.3-30 nm Following a 30 minute incubation at room temperature, the reaction was terminated by the addition of ice cold buffer and rapid filtration using a M-96 Brandel Cell Harvester (Gaithersburg, Md.) through a GF/B filter presoaked for 30 minutes in 0.5% polyethylenenimine.
row,Compound,Ki [µM]
1,"CCn1cc([C@H]2CC[C@@H](N3CCN(c4cccc5[nH]ccc45)CC3)CC2)c2cc(C#N)ccc21 [Example 13a, 1-Ethyl-3-{(1,4-cis)-4-[4-(1H-indol-4-yl)-piperazin-1-yl]-cyclohexyl}-1H-indole-5-carbonitrile]",0.563
2,"CCn1cc([C@H]2CC[C@H](N3CCN(c4cccc5[nH]ccc45)CC3)CC2)c2cc(C#N)ccc21 [Example 13b, 1-Ethyl-3-{(1,4-trans)-4-[4-(1H-indol-4-yl)-piperazin-1-yl]-cyclohexyl}-1H-indole-5-carbonitrile]",0.827
3,"CCCn1cc([C@H]2CC[C@@H](N3CCN(c4cccc5[nH]ccc45)CC3)CC2)c2cc(C#N)ccc21 [Example 14a, 3-{(1,4-cis)-4-[4-(1H-Indol-4-yl)-piperazin-1-yl]-cyclohexyl}-1-propyl-1H-indole-5-carbonitrile]",0.82
4,"COc1ccc2[nH]cc([C@H]3CC[C@@H](N4CCN(c5ccccc5OC)CC4)CC3)c2c1 [Example 20a, 5-Methoxy-3-{(1,4-cis)-4-[4-(2-methoxy-phenyl)-piperazin-1-yl]-cyclohexyl}-1H-indole]",0.631
5,"COc1ccccc1N1CCN([C@H]2CC[C@@H](c3c[nH]c4ncccc43)CC2)CC1 [Example 21, 3-{(1,4-cis)-4-[4-(2-Methoxy-phenyl)-piperazin-1-yl]-cyclohexyl}-1H-pyrrolo[2,3-b]pyridine]",0.11
6,"Fc1cccc2[nH]cc([C@H]3CC[C@@H](N4CCN(c5cccc6c5OCCO6)CC4)CC3)c12 [Example 23a, 3-{(1,4-cis)-4-[4-(2,3-Dihydro-benzo[1,4]dioxin-5-yl)-piperazin-1-yl]-cyclohexyl}-4-fluoro-1H-indole]",0.103
7,"Fc1cccc2[nH]cc([C@H]3CC[C@H](N4CCN(c5cccc6c5OCCO6)CC4)CC3)c12 [Example 23b, 3-{(1,4-trans)-4-[4-(2,3-Dihydro-benzo[1,4]dioxin-5-yl)-piperazin-1-yl]-cyclohexyl}-4-fluoro-1H-indole]",0.0149
8,"Fc1ccc2[nH]cc([C@H]3CC[C@@H](N4CCN(c5cccc6cccnc56)CC4)CC3)c2c1 [Example 27a, 8-{4-[(1,4-cis)-4-(5-Fluoro-1H-indol-3-yl)-cyclohexyl]-piperazin-1-yl}-quinoline]",0.0697
9,"Fc1ccc2[nH]cc([C@H]3CC[C@H](N4CCN(c5cccc6cccnc56)CC4)CC3)c2c1 [Example 27b, 8-{4-[(1,4-trans)-4-(5-Fluoro-1H-indol-3-yl)-cyclohexyl]-piperazin-1-yl}-quinoline]",0.00654
10,"Fc1cc2c(c(N3CCN([C@H]4CC[C@H](c5c[nH]c6ccc(F)cc65)CC4)CC3)c1)OCCC2 [Example 31b, 5-Fluoro-3-{(1,4-trans)-4-[4-(6-fluoro-chroman-8-yl)-piperazin-1-yl]-cyclohexyl}-1H-indole]",0.0324

# Same assay, conditions: concentration not given
row,"5-HT1A, value given as % [%]",Compound
1,0,"Brc1ccc2[nH]cc([C@H]3CC[C@@H](N4CCN(c5cccc6[nH]ccc56)CC4)CC3)c2c1 [Example 5a, 5-Bromo-3-[cis-4-[4-(1H-indol-4-yl)-1-piperazinyl]cyclohexyl]-1H-indole]"
2,78.7,"Brc1ccc2[nH]cc([C@H]3CC[C@H](N4CCN(c5cccc6[nH]ccc56)CC4)CC3)c2c1 [Example 5b, 5-Bromo-3-[trans-4-[4-(1H-indol-4-yl)-1-piperazinyl]cyclohexyl]-1H-indole]"
3,0,"Cn1ccc2c(N3CCN([C@H]4CC[C@@H](c5cn(C)c6cc(F)ccc65)CC4)CC3)cccc21 [Example 11, 6-Fluoro-1-methyl-3-{cis-4-[4-(1-methyl-1H-indol-4-yl)-1-piperazinyl]cyclohexyl}-1H-indole]"
4,0,"CCCn1cc([C@H]2CC[C@H](N3CCN(c4cccc5[nH]ccc45)CC3)CC2)c2cc(C#N)ccc21 [Example 14b, 3-{(1,4-trans)-4-[4-(1H-indol-4-yl)-piperazin-1-yl]-cyclohexyl}-1-propyl-1H-indole-5-carbonitrile]"

# System: not given
# Test: not given
# Conditions: not given
row,Compound,melting point [°C]
1,"Cn1cc([C@H]2CC[C@H](N3CCN(c4cc(C=O)cc5cccnc45)CC3)CC2)c2cc(C#N)ccc21 [Example 72, 8-[4-[(trans)-4-(5-Cyano-1-methyl-1H-indole-3-yl)-cyclohexyl]-piperazin-1-yl]-6-quinolinecarbaldehyde]",201 to 203
2,"Cn1cc([C@H]2CC[C@H](N3CCN(c4cc(C(=O)O)cc5cccnc45)CC3)CC2)c2cc(C#N)ccc21 [Example 74, 8-[4-[(trans)-4-(5-Cyano-1-methyl-1H-indole-3-yl)cyclohexyl]-1-piperazinyl]-6-quinolinecarboxylic Acid]",275
3,"COc1cc(N2CCN([C@H]3CC[C@@H](c4cn(C)c5ncccc54)CC3)CC2)c2ncccc2c1 [Example 79, 6-Methoxy-8-{cis-4-[4-(1-methyl-1H-pyrrolo[2,3-b]pyridin-3-yl)cyclohexyl]-1-piperazinyl}quinoline]",105 to 110
4,"COc1cc(N2CCN([C@H]3CC[C@@H](c4c[nH]c5cc(F)ccc54)CC3)CC2)c2ncccc2c1 [Example 80, 8-{cis-4-[4-(6-Fluoro-1H-indol-3-yl)cyclohexyl]-1-piperazinyl}-6-methoxyquinoline]",239 to 243
5,"COc1cc(N2CCN([C@H]3CC[C@@H](c4cn(C)c5cc(F)ccc54)CC3)CC2)c2ncccc2c1 [Example 81, 8-{cis-4-[4-(6-Fluoro-1-methyl-1H-indol-3-yl)cyclohexyl]-1-piperazinyl}-6-methoxyquinoline]",219 to 223
6,"COc1cc(N2CCN([C@H]3CC[C@@H](c4c[nH]c5ccc(C(F)(F)F)cc54)CC3)CC2)c2ncccc2c1 [Example 82, 6-Methoxy-8-(4-{(cis)-4-[5-(trifluoromethyl)-1H-indol-3-yl]cyclohexyl}-1-piperazinyl)quinoline]",143 to 147
7,"COc1cc(N2CCN(C3CCC(c4c[nH]c5cc(C#N)ccc45)CC3)CC2)c2ncccc2c1 (stereo not shown) [Example 85, 3-{4-[4-(6-Methoxy-8-quinolinyl)-1-piperazinyl]cyclohexyl}-1H-indole-6-carbonitrile]",242 to 244

# Next, values leading:
row,melting point [°C],Compound
1,227 to 228,"COc1cc(N2CCN([C@H]3CC[C@@H](c4cn(C)c5ccc(C#N)cc54)CC3)CC2)c2ncccc2c1C [Example 52a, (cis)-3-{4-[4-(6-Methoxy-5-methylquinolin-8-yl)piperazin-1-yl]cyclohexyl}-1-methyl-1H-indole-5-carbonitrile]"
2,212 to 213,"COc1cc(N2CCN([C@H]3CC[C@H](c4cn(C)c5ccc(C#N)cc54)CC3)CC2)c2ncccc2c1C [Example 52b, (trans)-3-{4-[4-(6-Methoxy-5-methylquinolin-8-yl)piperazin-1-yl]cyclohexyl}-1-methyl-1H-indole-5-carbonitrile]"
3,231,"COc1cc(N2CCN([C@H]3CC[C@@H](c4cn(C)c5ccc(C#N)cc54)CC3)CC2)c2ncccc2c1Cl [Example 52e, (cis)-3-{4-[4-(5-Chloro-6-methoxyquinolin-8-yl)piperazin-1-yl]cyclohexyl}-1-methyl-1H-indole-5-carbonitrile]"
4,215 to 216,"COc1cc(N2CCN([C@H]3CC[C@H](c4cn(C)c5ccc(C#N)cc54)CC3)CC2)c2ncccc2c1Cl [Example 52f, (trans)-3-{4-[4-(5-Chloro-6-methoxyquinolin-8-yl)piperazin-1-yl]cyclohexyl}-1-methyl-1H-indole-5-carbonitrile]"
5,215 to 217,"Cn1cc([C@H]2CC[C@@H](N3CCN(c4cc(Br)cc5cccnc45)CC3)CC2)c2cc(F)ccc21 [Example 58a, (cis)-6-Bromo-8-{4-[4-(5-fluoro-1-methyl-1H-indol-3-yl)cyclohexyl]piperazin-1-yl}quinoline]"
6,230 to 233,"COc1cc(N2CCN([C@H]3CC[C@H](c4cn(C)c5ccc(C#N)cc54)CC3)CC2)c2nccnc2c1 [Example 65b, (trans)-3-{4-[4-(7-Methoxyquinoxalin-5-yl)piperazin-1-yl]cyclohexyl}-1-methyl-1H-indole-5-carbonitrile]"
7,160 to 163,"CN(C)C(=O)c1cc(N2CCN([C@H]3CC[C@H](c4cn(C)c5ccc(C#N)cc54)CC3)CC2)c2ncccc2c1 [Example 77b, 8-[4-[(trans)-4-(5-Cyano-1-methyl-1H-indol-3-yl)cyclohexyl]-1-piperazinyl]-N,N-dimethyl-6-quinolincarboxamide]"
